Patent publication US6479435B1, “Diaryl ethers and processes for their preparation and herbicidal and desiccant compositions containing them” (ISK Americas Incorporated, priority 1997, dated 2002)

How the values were obtained:
Format in all cases: in vivo
[1] = test system: Johnsongrass (Sorghum halepense, SORHA); experiment: Pre-emerge greenhouse herbicide test, phytotoxicity rating; details: 14 days after application, rating scale 0-100
In short: (§1)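 Seeds sown in sandy loam mix one day before track-sprayer application of compounds in acetone at 125–1000 g ai/ha (187 l/ha), then surface-watered to incorporate and bottom-watered. Visual rating 14 days after application on a 0–100 scale (0 = no damage, 100 = all plants dead).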

[2] = test system: barnyardgrass (Echinochloa crusgalli, ECHCG); experiment: as above; details: 14 days after application, rating scale 0-100
In short: as §1

[3] = test system: common ragweed (Ambrosia artemisiifolia L., AMBEL); experiment: as above; details: 14 days after application, rating scale 0-100
In short: as §1

[4] = test system: green foxtail (Setaria viridis, SETVI); experiment: as above; details: 14 days after application, rating scale 0-100
In short: as §1

[5] = test system: ivyleaf morningglory (Ipomoea hederacea, IPOHE); experiment: as above; details: 14 days after application, rating scale 0-100
In short: as §1

[6] = test system: lambsquarters (Chenopodium album, CHEAL); experiment: as above; details: 14 days after application, rating scale 0-100
In short: as §1

[7] = test system: large crabgrass (Digitaria sanguinalis, DIGSA); experiment: as above; details: 14 days after application, rating scale 0-100
In short: as §1

[8] = test system: redroot pigweed (Amaranthus retroflexus, AMARE); experiment: as above; details: 14 days after application, rating scale 0-100
In short: as §1

[9] = test system: sicklepod (Cassia obtusifolia, CASOB); experiment: as above; details: 14 days after application, rating scale 0-100
In short: as §1

[10] = test system: velvetleaf (Abutilon theophrasti, ABUTH); experiment: as above; details: 14 days after application, rating scale 0-100
In short: as §1

[11] = test system: field corn (Zea mays L., var. Dekalb 535, CORN); experiment: Pre-emerge greenhouse test, crop damage rating; details: 14 days after application, rating scale 0-100
In short: as §1

[12] = test system: upland rice (Oryza sp., var.Tebonnet, RICE); experiment: Pre-emerge greenhouse test, crop damage rating; details: 14 days after application, rating scale 0-100
In short: as §1

[13] = test system: soybean (Glycine max L., var. Pella 86, SOY); experiment: Pre-emerge greenhouse test, crop damage rating; details: 14 days after application, rating scale 0-100
In short: as §1

[14] = test system: common ragweed (Ambrosia artemisiifolia L., AMBEL); experiment: Post-emerge greenhouse herbicide test, phytotoxicity rating; details: 14 days after application
In short: (§2)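 Compounds in acetone with 0.25% v/v non-ionic surfactant were track-sprayed at 187 l/ha over plants at the 2-3 leaf stage, at 63 to 1000 g ai/ha. Pots were bottom-watered. Injury was scored visually 14 days later on a 0-100 scale, where 0 is no damage and 100 is complete plant death.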

[15] = test system: Johnsongrass (Sorghum halepense, SORHA); experiment: as above; details: 14 days after application
In short: as §2

[16] = test system: barnyardgrass (Echinochloa crusgalli, ECHCG); experiment: as above; details: 14 days after application
In short: as §2

[17] = test system: green foxtail (Setaria viridis, SETVI); experiment: as above; details: 14 days after application
In short: as §2

[18] = test system: ivyleaf morningglory (Ipomoea hederacea, IPOHE); experiment: as above; details: 14 days after application
In short: as §2

[19] = test system: lambsquarters (Chenopodium album, CHEAL); experiment: as above; details: 14 days after application
In short: as §2

[20] = test system: large crabgrass (Digitaria sanguinalis, DIGSA); experiment: as above; details: 14 days after application
In short: as §2

[21] = test system: redroot pigweed (Amaranthus retroflexus, AMARE); experiment: as above; details: 14 days after application
In short: as §2

[22] = test system: sicklepod (Cassia obtusifolia, CASOB); experiment: as above; details: 14 days after application
In short: as §2

[23] = test system: velvetleaf (Abutilon theophrasti, ABUTH); experiment: as above; details: 14 days after application
In short: as §2

[24] = test system: field corn (Zea mays L., var. Dekalb 535, CORN); experiment: Post-emerge greenhouse test, crop damage rating; details: 14 days after application
In short: as §2

[25] = test system: upland rice (Oryza sp., var.Tebonnet, RICE); experiment: Post-emerge greenhouse test, crop damage rating; details: 14 days after application
In short: as §2

[26] = test system: soybean (Glycine max L., var. Pella 86, SOY); experiment: Post-emerge greenhouse test, crop damage rating; details: 14 days after application
In short: as §2

Structure (SMILES): Cc1nsc(Oc2cc(-n3nnn(CCCF)c3=O)c(F)cc2Cl)c1[N+](=O)[O-] [Compound 6-17]
- phytotoxicity rating SORHA ([1]; 125 g ai/ha): 0
- phytotoxicity rating SORHA ([1]; 500 g ai/ha): 0
- phytotoxicity rating ECHCG ([2]; 125 g ai/ha): 0
- phytotoxicity rating ECHCG ([2]; 500 g ai/ha): 0
- phytotoxicity rating AMBEL ([3]; 125 g ai/ha): 0
- phytotoxicity rating AMBEL ([3]; 500 g ai/ha): 0
- phytotoxicity rating SETVI ([4]; 125 g ai/ha): 0
- phytotoxicity rating SETVI ([4]; 500 g ai/ha): 0
- phytotoxicity rating IPOHE ([5]; 125 g ai/ha): 0
- phytotoxicity rating IPOHE ([5]; 500 g ai/ha): 0
- phytotoxicity rating CHEAL ([6]; 125 g ai/ha): 0
- phytotoxicity rating CHEAL ([6]; 500 g ai/ha): 0
- phytotoxicity rating DIGSA ([7]; 125 g ai/ha): 0
- phytotoxicity rating DIGSA ([7]; 500 g ai/ha): 0
- phytotoxicity rating AMARE ([8]; 125 g ai/ha): 0
- phytotoxicity rating AMARE ([8]; 500 g ai/ha): 0
- phytotoxicity rating CASOB ([9]; 125 g ai/ha): 0
- phytotoxicity rating CASOB ([9]; 500 g ai/ha): 0
- phytotoxicity rating ABUTH ([10]; 125 g ai/ha): 0
- phytotoxicity rating ABUTH ([10]; 500 g ai/ha): 0
- crop damage rating CORN ([11]; 125 g ai/ha): 0
- crop damage rating CORN ([11]; 500 g ai/ha): 0
- crop damage rating RICE ([12]; 125 g ai/ha): 6
- crop damage rating RICE ([12]; 500 g ai/ha): 0
- crop damage rating SOY ([13]; 125 g ai/ha): 0
- crop damage rating SOY ([13]; 500 g ai/ha): 0
- AMBEL phytotoxicity rating (0-100) ([14]; 63 g al/ha): 0
- AMBEL phytotoxicity rating (0-100) ([14]; 500 g al/ha): 0
- SORHA phytotoxicity rating (0-100) ([15]; 63 g al/ha): 0
- SORHA phytotoxicity rating (0-100) ([15]; 500 g al/ha): 0
- ECHCG phytotoxicity rating (0-100) ([16]; 63 g al/ha): 0
- ECHCG phytotoxicity rating (0-100) ([16]; 500 g al/ha): 0
- SETVI phytotoxicity rating (0-100) ([17]; 63 g al/ha): 0
- SETVI phytotoxicity rating (0-100) ([17]; 500 g al/ha): 0
- IPOHE phytotoxicity rating (0-100) ([18]; 63 g al/ha): 0
- IPOHE phytotoxicity rating (0-100) ([18]; 500 g al/ha): 0
- CHEAL phytotoxicity rating (0-100) ([19]; 63 g al/ha): 0
- CHEAL phytotoxicity rating (0-100) ([19]; 500 g al/ha): 0
- DIGSA phytotoxicity rating (0-100) ([20]; 63 g al/ha): 0
- DIGSA phytotoxicity rating (0-100) ([20]; 500 g al/ha): 0
- AMARE phytotoxicity rating (0-100) ([21]; 63 g al/ha): 0
- AMARE phytotoxicity rating (0-100) ([21]; 500 g al/ha): 0
- CASOB phytotoxicity rating (0-100) ([22]; 63 g al/ha): 0
- CASOB phytotoxicity rating (0-100) ([22]; 500 g al/ha): 0
- ABUTH phytotoxicity rating (0-100) ([23]; 63 g al/ha): 0
- ABUTH phytotoxicity rating (0-100) ([23]; 500 g al/ha): 0
- CORN crop damage rating (0-100) ([24]; 63 g al/ha): 0
- CORN crop damage rating (0-100) ([24]; 500 g al/ha): 0
- RICE crop damage rating (0-100) ([25]; 63 g al/ha): 0
- RICE crop damage rating (0-100) ([25]; 500 g al/ha): 0
- SOY crop damage rating (0-100) ([26]; 63 g al/ha): 0
- SOY crop damage rating (0-100) ([26]; 500 g al/ha): 0

Structure (SMILES): O=c1sc(=Nc2cc(Oc3ncccn3)c(Cl)cc2F)n2n1CCCC2 [Compound 7-2]
- phytotoxicity rating SORHA ([1]; 125 g ai/ha): 95
- phytotoxicity rating SORHA ([1]; 500 g ai/ha): 100
- phytotoxicity rating ECHCG ([2]; 125 g ai/ha): 99
- phytotoxicity rating ECHCG ([2]; 500 g ai/ha): 100
- phytotoxicity rating AMBEL ([3]; 125 g ai/ha): 100
- phytotoxicity rating AMBEL ([3]; 500 g ai/ha): 100
- phytotoxicity rating SETVI ([4]; 125 g ai/ha): 100
- phytotoxicity rating SETVI ([4]; 500 g ai/ha): 100
- phytotoxicity rating IPOHE ([5]; 125 g ai/ha): 100
- phytotoxicity rating IPOHE ([5]; 500 g ai/ha): 100
- phytotoxicity rating CHEAL ([6]; 125 g ai/ha): 100
- phytotoxicity rating CHEAL ([6]; 500 g ai/ha): 100
- phytotoxicity rating DIGSA ([7]; 125 g ai/ha): 100
- phytotoxicity rating DIGSA ([7]; 500 g ai/ha): 100
- phytotoxicity rating AMARE ([8]; 125 g ai/ha): 100
- phytotoxicity rating AMARE ([8]; 500 g ai/ha): 100
- phytotoxicity rating CASOB ([9]; 125 g ai/ha): 60
- phytotoxicity rating CASOB ([9]; 500 g ai/ha): 100
- phytotoxicity rating ABUTH ([10]; 125 g ai/ha): 100
- phytotoxicity rating ABUTH ([10]; 500 g ai/ha): 100
- crop damage rating CORN ([11]; 125 g ai/ha): 45
- crop damage rating CORN ([11]; 500 g ai/ha): 70
- crop damage rating RICE ([12]; 125 g ai/ha): 90
- crop damage rating RICE ([12]; 500 g ai/ha): 100
- crop damage rating SOY ([13]; 125 g ai/ha): 0
- crop damage rating SOY ([13]; 500 g ai/ha): 80
- AMBEL phytotoxicity rating (0-100) ([14]; 63 g al/ha): 100
- AMBEL phytotoxicity rating (0-100) ([14]; 500 g al/ha): 100
- SORHA phytotoxicity rating (0-100) ([15]; 63 g al/ha): 60
- SORHA phytotoxicity rating (0-100) ([15]; 500 g al/ha): 100
- ECHCG phytotoxicity rating (0-100) ([16]; 63 g al/ha): 40
- ECHCG phytotoxicity rating (0-100) ([16]; 500 g al/ha): 95
- SETVI phytotoxicity rating (0-100) ([17]; 63 g al/ha): 90
- SETVI phytotoxicity rating (0-100) ([17]; 500 g al/ha): 100
- IPOHE phytotoxicity rating (0-100) ([18]; 63 g al/ha): 100
- IPOHE phytotoxicity rating (0-100) ([18]; 500 g al/ha): 100
- CHEAL phytotoxicity rating (0-100) ([19]; 63 g al/ha): 100
- CHEAL phytotoxicity rating (0-100) ([19]; 500 g al/ha): 100
- DIGSA phytotoxicity rating (0-100) ([20]; 63 g al/ha): 30
- DIGSA phytotoxicity rating (0-100) ([20]; 500 g al/ha): 85
- AMARE phytotoxicity rating (0-100) ([21]; 63 g al/ha): 100
- AMARE phytotoxicity rating (0-100) ([21]; 500 g al/ha): 100
- CASOB phytotoxicity rating (0-100) ([22]; 63 g al/ha): 100
- CASOB phytotoxicity rating (0-100) ([22]; 500 g al/ha): 100
- ABUTH phytotoxicity rating (0-100) ([23]; 63 g al/ha): 100
- ABUTH phytotoxicity rating (0-100) ([23]; 500 g al/ha): 100
- CORN crop damage rating (0-100) ([24]; 63 g al/ha): 35
- CORN crop damage rating (0-100) ([24]; 500 g al/ha): 90
- RICE crop damage rating (0-100) ([25]; 63 g al/ha): 80
- RICE crop damage rating (0-100) ([25]; 500 g al/ha): 95
- SOY crop damage rating (0-100) ([26]; 63 g al/ha): 95
- SOY crop damage rating (0-100) ([26]; 500 g al/ha): 100
